Assay results from US9458135B2, “Dihydroquinoline-2-one derivatives” (Hoffmann-La Roche Inc., priority 2014, dated 2016).

Legend:
human CYP11B2 = human CYP11B2 (Homo sapiens (Human), UniProt P19099); test: G-402 cellular enzyme assay, human CYP11B2 (aldosterone release, HTRF); assay type: cell-based; details: G-402 cells expressing human CYP11B2; 1 μM Deoxycorticosterone
Text: (§1) Herein we identified the use of the G-402 cell line as a host cell to ectopically express (transiently or stably) enzymes of the CYP11 family. Specifically we developed stable G-402 cells expressing ectopically human CYP11B1, human CYP11B2, human CYP11A1, cynmolgus CYP11B1 or cynomolgus CYP11B2 enzyme activity. Importantly the identified cell line G-402 expresses co-factors (adrenodoxin and adrenodoxin reductase) important for the activity of the CYP11 family and no relevant enzyme activity of the CYP11 family (in comparison to H295R cells) was detected in these cells. Therefore the G-402 cell line is uniquely suited as a host cell for the ectopic expression of enzymes from the CYP11 family.
(§2) The expression plasmids contains the ORF for either huma/cyno CYP11B1 or CYP11B2 under the control of a suitable promoter (CMV-promoter) and a suitable resistance marker (neomycin). Using standard techniques the expression plasmid is transfected into G-402 cells and these cells are then selected for expressing the given resistance markers. Individual cell-clones are then selected and assessed for displaying the desired enzymatic activity using 11-Deoxycorticosterone (Cyp11B2) or 11-Deoxycortisol (Cyp11B1) as a substrate.
(§3) G-402 cells expressing CYP11 constructs were established as described above and maintained in McCoy's 5a Medium Modified, ATCC Catalog No. 30-2007 containing 10% FCS and 400 μg/ml G418 (Geneticin) at 37° C. under an atmosphere of 5% CO2/95% air. Cellular enzyme assays were performed in DMEM/F12 medium containing 2.5% charcoal treated FCS and appropriate concentration of substrate (0.3-10 uM 11-Deoxycorticosterone, 11-Deoxycortisol or Corticosterone). For assaying enzymatic activity, cells were plated onto 96 well plates and incubated for 16 h. An aliquot of the supernatant is then transferred and analyzed for the concentration of the expected product (Aldosterone for CYP11B2; Cortisol for CYP11B1). The concentrations of these steroids can be determined using HTRF assays from CisBio analyzing either Aldosterone or Cortisol.
(§4) Inhibition of the release of produced steroids can be used as a measure of the respective enzyme inhibition by test compounds added during the cellular enzyme assay. The dose dependent inhibition of enzymatic activity by a compound is calculated by means of plotting added inhibitor concentrations (x-axes) vs. measured steroid/product level (y-axes). The inhibition is then calculated by fitting the following 4-parameter sigmoidal function (Morgan-Mercer-Flodin (MMF) model) to the raw data points using the least squares method:
(§5) [formula] wherein, A is the maximum y value, B is the EC50 factor determined using XLFit, C is the minimum y value and D is the slope value.
(§6) EC50 values for compounds claimed herein were tested with the G402-based assay system described. Cyp11B2 enzyme activity was tested in presence of 1 μM Deoxycorticosterone and variable amounts of inhibitors; Cyp11B1 enzyme activity was tested in presence of 1 μM Deoxycortisol and variable amounts of inhibitors.

human CYP11B1 = human CYP11B1 (Homo sapiens (Human), UniProt P15538); test: G-402 cellular enzyme assay, human CYP11B1 (cortisol release, HTRF); assay type: cell-based; details: G-402 cells expressing human CYP11B1; 1 μM Deoxycortisol
Text: as §1, §2, §3, §4, §5, §6

[1] = tested on: rat model of chronic kidney disease; details: cited from earlier work; for plasma aldosterone: FAD286 following 4 weeks of treatment, spironolactone at 4 and 8 weeks; for renal effects (albuminuria, azotemia, renovascular hypertrophy, glomerular injury, PAI-1 and osteopontin mRNA, tubulointerstitial fibrosis): angiotensin II and high salt treatment
[2] = tested on: rats with experimental heart failure; details: cited from earlier work
[3] = tested on: patients with primary aldosteronism; details: cited from earlier work

Sequence of human CYP11B1 (P15538 25-503): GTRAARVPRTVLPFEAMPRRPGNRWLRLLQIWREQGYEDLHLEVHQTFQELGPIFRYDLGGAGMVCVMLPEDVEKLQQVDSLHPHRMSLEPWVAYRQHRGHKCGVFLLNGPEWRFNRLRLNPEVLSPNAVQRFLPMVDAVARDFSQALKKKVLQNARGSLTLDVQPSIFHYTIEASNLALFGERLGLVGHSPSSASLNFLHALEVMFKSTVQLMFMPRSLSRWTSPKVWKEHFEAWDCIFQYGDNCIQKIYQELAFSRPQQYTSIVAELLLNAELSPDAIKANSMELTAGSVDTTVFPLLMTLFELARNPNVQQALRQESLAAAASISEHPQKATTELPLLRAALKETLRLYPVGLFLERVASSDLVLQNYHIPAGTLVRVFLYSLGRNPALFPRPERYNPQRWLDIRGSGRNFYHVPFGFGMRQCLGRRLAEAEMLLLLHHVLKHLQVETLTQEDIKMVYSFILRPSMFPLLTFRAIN
Sequence of human CYP11B2 (P19099 25-503): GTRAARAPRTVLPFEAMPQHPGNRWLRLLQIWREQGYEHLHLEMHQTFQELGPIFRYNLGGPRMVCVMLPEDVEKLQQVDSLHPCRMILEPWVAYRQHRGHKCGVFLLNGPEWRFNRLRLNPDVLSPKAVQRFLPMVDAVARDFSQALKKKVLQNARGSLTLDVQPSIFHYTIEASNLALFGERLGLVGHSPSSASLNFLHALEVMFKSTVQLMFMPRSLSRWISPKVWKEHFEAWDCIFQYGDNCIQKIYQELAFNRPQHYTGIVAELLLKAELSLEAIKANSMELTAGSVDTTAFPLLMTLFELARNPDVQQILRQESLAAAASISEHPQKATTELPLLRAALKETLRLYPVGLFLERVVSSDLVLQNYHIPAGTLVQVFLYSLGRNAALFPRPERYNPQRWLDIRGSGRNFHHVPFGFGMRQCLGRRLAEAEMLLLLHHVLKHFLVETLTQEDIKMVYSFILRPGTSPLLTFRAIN

Row | EC50 (human CYP11B2) [µM] | EC50 (human CYP11B1) [µM] | SMILES | plasma aldosterone [1] | renal effects (albuminuria, azotemia, renovascular hypertrophy, glomerular injury, PAI-1 and osteopontin mRNA, tubulointerstitial fibrosis) [1] | angiotensin II and salt-stimulated PAI-1 mRNA expression in the aorta and the heart [1] | further results
1 | 0.0127 | 0.307 | CN1C(=O)CCc2cc(-c3cncc(CC(=O)Nc4cccc(Cl)c4)c3)ccc21 [Example 29, N-(3-Chloro-phenyl)-2-[5-(1-methyl-2-oxo-1,2,3,4-tetrahydro-quinolin-6-yl)-pyridin-3-yl]-acetamide] | – | – | – | –
2 | 0.0068 | 0.0405 | CN1C(=O)CCc2cc(-c3cncc(CC(=O)Nc4cccc(Cl)n4)c3)ccc21 [Example 30, N-(6-Chloro-pyridin-2-yl)-2-[5-(1-methyl-2-oxo-1,2,3,4-tetrahydro-quinolin-6-yl)-pyridin-3-yl]-acetamide] | – | – | – | –
3 | – | – | N#Cc1ccc([C@H]2CCCc3cncn32)cc1 [FAD286] | reduced | prevented these renal effects | not | blood pressure and cardiovascular function and structure [2]: improved; kidney function and morphology [2]: improve
4 | – | – | N#Cc1ccc([C@H]2CCc3cncn32)c(F)c1 [LCI699] | – | – | – | selectivity (effects on the glucocorticoid axis) [3]: poor selectivity; blood pressure ([3]; oral): mildly decreased; circulating aldosterone levels ([3]; oral): significantly lower; hypokalemia ([3]; oral): corrected
5 | – | – | CC(=O)S[C@@H]1CC2=CC(=O)CC[C@]2(C)[C@H]2CC[C@@]3(C)[C@@H](CC[C@@]34CCC(=O)O4)[C@H]12 [spironolactone] | increased | prevented these renal effects | enhanced | –
